In the supplement of paper PMC11061612:

Tests used:
[1] = compound: COc1nnc2ccc(N3CCC(c4ccc(OCCN5CCN(C)C(=O)[C@H]5C)cc4)CC3)nn12 [AZD5153]; details: max 1 µM
Outline: (§1)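 After 24 hours at 37°C and 5% CO2 in 1536-well plates holding 7.5 μl of DMEM/F12 or RPMI with 10% FBS, cancer cell lines were dosed for 72 hours, with final DMSO typically 0.2%. Viability came from CellTiter-Glo 2.0 luminescence, scaled between the means of blank wells and DMSO wells. A non-linear mixed effects model fitted a two-parameter logistic curve to each dose response to give the single-agent IC50.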

[2] = compound: C[C@@H](Nc1cc(F)cc(F)c1)c1cc(C(=O)N(C)C)cc2c(=O)cc(N3CCOCC3)oc12 [AZD8186]; details: max 10 µM
Outline: as §1

[3] = compound: CC(=O)c1c(C)c2cnc(Nc3ccc(N4CCNCC4)cn3)nc2n(C2CCCC2)c1=O [Palbociclib]; details: max 10 µM
Outline: as §1

[4] = compound: COc1cc(Nc2ncc3c(n2)-c2ccc(Cl)cc2C(c2c(F)cccc2OC)=NC3)ccc1C(=O)O [Alisertib]; details: max 10 µM
Outline: as §1

[5] = compound: CC1=C(C(=CC=C1)Cl)NC(=O)C2=CN=C(S2)NC3=CC(=NC(=N3)C)N4CCN(CC4)CCO [Dasatinib]; details: max 2 µM
Outline: as §1

[6] = compound: O=C(c1cc(Cc2n[nH]c(=O)c3ccccc23)ccc1F)N1CCN(C(=O)C2CC2)CC1 [Olaparib]; details: max 10 µM
Outline: as §1

[7] = compound: CN(CC[C@H](CSC1=CC=CC=C1)NC2=C(C=C(C=C2)S(=O)(=O)NC(=O)C3=CC=C(C=C3)N4CCC(CC4)[C@H](C5=CC=CC=C5C6=CC=C(C=C6)Cl)O)S(=O)(=O)C(F)(F)F)CCO [AZD4320]; details: max 1 µM
Outline: as §1

[8] = compound: C[C@@H]1COCCN1C2=NC(=NC(=C2)C3(CC3)[S@](=N)(=O)C)C4=C5C=CNC5=NC=C4 [AZD6738]; details: max 10 µM
Outline: as §1

[9] = compound: COc1cccc(OCCCN)c1-c1cc(Nc2cnc(C#N)cn2)n[nH]1 [Prexasertib]; details: max 1 µM
Outline: as §1

[10] = compound: CC(=O)Nc1cccc(-n2c(=O)n(C3CC3)c(=O)c3c(Nc4ccc(I)cc4F)n(C)c(=O)c(C)c32)c1 [Trametinib]; details: max 1 µM
Outline: as §1

[11] = compound: COc1cc2ncnc(Nc3ccc(F)c(Cl)c3)c2cc1OCCCN1CCOCC1 [Gefitinib]; details: max 10 µM
Outline: as §1

[12] = compound: Cc1c2c(nn1C)CSCc1cc(n(C)n1)CSc1cc(c3ccccc3c1)OCCCc1c(C(=O)O)n(C)c3c-2c(Cl)ccc13 [AZD5991]; details: max 1 µM
Outline: as §1

[13] = compound: C1CC(C1)(C(=O)[O-])C(=O)[O-].N.N.[Pt+2] [Carboplatin]; details: max 10 µM
Outline: as §1

[14] = compound: CN(C)CCCOc1ccc(-c2ccc3ncc4c(c3c2)n(C2CCOCC2)c(=O)n4C)cn1 [AZD0156]; details: max 3 µM
Outline: as §1

[15] = compound: C[C@@H](c1ccc2nccn2c1)n1nnc2ncc(-c3cnn(C)c3)nc21 [Savolitinib]; details: max 1 µM
Outline: as §1

[16] = compound: CC1=CN2[C@@H](C1)C=NC3=CC(=C(C=C3C2=O)OC)OCCCCCOC4=C(C=C5C(=C4)N=C[C@@H]6CC(=CN6C5=O)C)OC [SG3199]; details: max 0.001 µM
Outline: as §1

[17] = compound: CC(C)n1c(=O)n(C)c2cnc3cc(F)c(-c4ccc(OCCCN5CCCCC5)nc4)cc3c21 [AZD1390]; details: max 0.3 µM
Outline: as §1

[18] = compound: CCc1c2c(nc3ccc(O)cc13)-c1cc3c(c(=O)n1C2)COC(=O)[C@]3(O)CC [SN-38]; details: max 0.3 µM
Outline: as §1

[19] = compound: COc1cccc2c1C(=O)c1c(O)c3c(c(O)c1C2=O)C[C@@](O)(C(=O)CO)C[C@@H]3O[C@H]1C[C@H](N)[C@H](O)[C@H](C)O1 [Doxorubicin]; details: max 1 µM
Outline: as §1

[20] = compound: NC1(c2ccc(-c3nc4ccn5c(=O)[nH]nc5c4cc3-c3ccccc3)cc2)CCC1 [MK-2206]; details: max 10 µM
Outline: as §1

[21] = compound: C[C@@H](Oc1cc(-c2cnn(C3CCNCC3)c2)cnc1N)c1c(Cl)ccc(F)c1Cl [Crizotinib]; details: max 10 µM
Outline: as §1

[22] = compound: C=CCn1c(=O)c2cnc(Nc3ccc(N4CCN(C)CC4)cc3)nc2n1-c1cccc(C(C)(C)O)n1 [AZD1775]; details: max 3 µM
Outline: as §1

[23] = compound: Nc1ccn([C@@H]2O[C@H](CO)[C@@H](O)C2(F)F)c(=O)n1 [Gemcitabine]; details: max 0.3 µM
Outline: as §1

[24] = compound: CCN(CCO)CCCOc1ccc2c(Nc3cc(CC(=O)Nc4cccc(F)c4)[nH]n3)ncnc2c1 [AZD2811]; details: max 1 µM
Outline: as §1

[25] = compound: Cc1nc(-c2cn3c(n2)-c2ccc(-c4cnn(C(C)(C)C(N)=O)c4)cc2OCC3)n(C(C)C)n1 [Taselisib]; details: max 10 µM
Outline: as §1

[26] = compound: O=c1[nH]cc(F)c(=O)[nH]1 [5-Fluorouracil]; details: max 20 µM
Outline: as §1

[27] = compound: C1CN(CCC1(C(=O)N[C@@H](CCO)C2=CC=C(C=C2)Cl)N)C3=NC=NC4=C3C=CN4 [AZD5363]; details: max 10 µM
Outline: as §1

[28] = compound: N#Cc1cnc(Nc2cc(NC[C@H]3CNCCO3)c(C(F)(F)F)cn2)cn1 [SRA737]; details: max 10 µM
Outline: as §1

[29] = compound: Cn1cnc2c(F)c(Nc3ccc(Br)cc3Cl)c(C(=O)NOCCO)cc21 [Selumetinib]; details: max 10 µM
Outline: as §1

[30] = compound: CS(=O)(=O)CCNCc1ccc(-c2ccc3ncnc(Nc4ccc(OCc5cccc(F)c5)c(Cl)c4)c3c2)o1 [Lapatinib]; details: max 10 µM
Outline: as §1

[31] = compound: CC1(C)CCC(CN2CCN(c3ccc(C(=O)NS(=O)(=O)c4ccc(NCC5CCOCC5)c([N+](=O)[O-])c4)c(Oc4cnc5[nH]ccc5c4)c3)CC2)=C(c2ccc(Cl)cc2)C1 [Venetoclax]; details: max 1 µM
Outline: as §1

[32] = compound: CC(=O)O[C@H]1C(=O)[C@@]2(C)[C@H]([C@H](OC(=O)c3ccccc3)[C@]3(O)C[C@H](OC(=O)[C@H](O)[C@@H](NC(=O)c4ccccc4)c4ccccc4)C(C)=C1C3(C)C)[C@]1(OC(C)=O)CO[C@@H]1C[C@@H]2O [Paclitaxel]; details: max 3 µM
Outline: as §1

[33] = compound: COc1cc([C@@H]2c3cc4c(cc3[C@@H](O[C@@H]3O[C@@H]5CO[C@@H](C)O[C@H]5[C@H](O)[C@H]3O)[C@H]3COC(=O)[C@H]23)OCO4)cc(OC)c1O [Etoposide]; details: max 10 µM
Outline: as §1

[34] = compound: O=C(Nc1ccc2[nH]nc(-c3ccncc3)c2c1)[C@@H]1CCN(CC(=O)N2CCN(c3ccc(-c4ncccn4)cc3)CC2)C1; details: max 5 µM
Outline: as §1

[35] = compound: Cc1cc2ncnn2cc1Nc1ncc2c(n1)n(C1CCOCC1)c(=O)n2C [AZD7648]; details: max 10 µM
Outline: as §1

Cell Line | IC50, cell viability 72 h [1] [nM] | IC50, cell viability 72 h [2] [nM] | IC50, cell viability 72 h [3] [nM] | IC50, cell viability 72 h [4] [nM] | IC50, cell viability 72 h [5] [nM] | IC50, cell viability 72 h [6] [nM] | IC50, cell viability 72 h [7] [nM] | IC50, cell viability 72 h [8] [nM] | IC50, cell viability 72 h [9] [nM] | IC50, cell viability 72 h [10] [nM] | IC50, cell viability 72 h [11] [nM] | IC50, cell viability 72 h [12] [nM] | IC50, cell viability 72 h [13] [nM] | IC50, cell viability 72 h [14] [nM] | IC50, cell viability 72 h [15] [nM] | IC50, cell viability 72 h [16] [nM] | IC50, cell viability 72 h [17] [nM] | IC50, cell viability 72 h [18] [nM] | IC50, cell viability 72 h [19] [nM] | IC50, cell viability 72 h [20] [nM] | IC50, cell viability 72 h [21] [nM] | IC50, cell viability 72 h [22] [nM] | IC50, cell viability 72 h [23] [nM] | IC50, cell viability 72 h [24] [nM] | IC50, cell viability 72 h [25] [nM] | IC50, cell viability 72 h [26] [nM] | IC50, cell viability 72 h [27] [nM] | IC50, cell viability 72 h [28] [nM] | IC50, cell viability 72 h [29] [nM] | IC50, cell viability 72 h [30] [nM] | IC50, cell viability 72 h [31] [nM] | IC50, cell viability 72 h [32] [nM] | IC50, cell viability 72 h [33] [nM] | IC50, cell viability 72 h [34] [nM] | IC50, cell viability 72 h [35] [nM]
NCI-H1703 (Squamous Cell Lung Carcinoma) | 400 | 4060 | 9730 | 6210 | 47.8 | > 10000 | > 1000 | 917 | 8.59 | > 1000 | > 10000 | 393 | > 10000 | > 3000 | > 1000 | > 1 | > 300 | 36.7 | 142 | 2830 | 8010 | 222 | 4.23 | > 1000 | 625 | > 20000 | 6660 | 1170 | > 10000 | > 10000 | > 1000 | 5.86 | 1640 | > 5000 | > 10000
769-P (Kidney Carcinoma) | 168 | > 10000 | 2870 | > 10000 | 253 | > 10000 | > 1000 | 1500 | 40.6 | > 1000 | 8480 | > 1000 | > 10000 | > 3000 | > 1000 | > 1 | > 300 | 159 | 816 | > 10000 | 4590 | 874 | 24.3 | > 1000 | > 10000 | 12400 | > 10000 | 1540 | > 10000 | 5240 | > 1000 | 109 | > 10000 | > 5000 | > 10000
MKN1 (Gastric Carcinoma) | 343 | > 10000 | > 10000 |  | 560 | > 10000 | > 1000 | 2870 |  | > 1000 | > 10000 | > 1000 | > 10000 | > 3000 | > 1000 |  | > 300 | 124 |  | > 10000 | > 10000 | 640 | 161 | > 1000 | 573 | > 20000 | > 10000 | 4850 | > 10000 | > 10000 | > 1000 | 13.4 | 1250 | > 5000 | > 10000
UACC-812 (Breast Carcinoma) | > 1000 | > 10000 | > 10000 | > 10000 | > 2000 | > 10000 | > 1000 | > 10000 | 851 | > 1000 | > 10000 | > 1000 | > 10000 | > 3000 | > 1000 | > 1 | > 300 | > 300 | > 1000 |  | > 10000 | > 3000 | > 300 | > 1000 | > 10000 | > 20000 | > 10000 | > 10000 | > 10000 | 7470 | > 1000 | 1920 | 9330 | > 5000 | > 10000
SW620 (Colorectal Carcinoma) | > 1000 | > 10000 | > 10000 | > 10000 | > 2000 | > 10000 | > 1000 | > 10000 | 306 | 39.6 | > 10000 | > 1000 | > 10000 | > 3000 | > 1000 | > 1 | > 300 | 32.2 | 640 | > 10000 | > 10000 | 1140 | 97.6 | > 1000 | > 10000 | > 20000 | > 10000 | > 10000 | 911 | > 10000 | > 1000 | 116 | 3420 | 928 | > 10000
